What all share (type): functional
Assay [1] is described as follows: Antiosteoclast activity in ICR mouse osteoblast like cells co-cultured with bone marrow cells assessed as effect on 1-alpha,25(OH)2D3-induced TRAP-positive osteoclast like multinucleated cell formation at 200 uM after 6 days medium replaced every 2 days relative to control.
Assay [2] in a line: Antiosteoclast activity in ICR mouse osteoblast like cells co-cultured with bone marrow cells assessed as effect on 1-alpha,25(OH)2D3-induced TRAP-positive osteoclast like multinucleated cell formation at 20 uM after 6 days medium replaced every 2 days relative to control.
Assay [3] can be described thus: Antiosteoclast activity in ICR mouse osteoblast like cells co-cultured with bone marrow cells assessed as effect on 1-alpha,25(OH)2D3-induced TRAP-positive osteoclast like multinucleated cell formation at 2 uM after 6 days medium replaced every 2 days relative to control.
Assay [4] can be described thus: Antiosteoclast activity in ICR mouse osteoblast like cells co-cultured with bone marrow cells assessed as recovery of 1-alpha,25(OH)2D3-induced TRAP-positive osteoclast like multinucleated cell formation at 20 uM after 6 days drug removal after 2 days relative to control.
A short description of assay [5]: Antiosteoclast activity in ICR mouse osteoblast like cells co-cultured with bone marrow cells assessed as recovery of 1-alpha,25(OH)2D3-induced TRAP-positive osteoclast like multinucleated cell formation at 2 uM after 6 days drug removal after 2 days relative to control.

In the case of `COC(=O)[C@H](C)NC(=O)[C@]12CCC(C)(C)C[C@H]1C1=CC[C@@H]3[C@@]4(C)Cc5nc6ccccc6nc5C(C)(C)[C@@H]4CC[C@@]3(C)[C@]1(C)CC2`, the Activity in assay [1] was found to be 77%; in assay [2], 31.2%; in assay [3] it was 25.7%; in assay [4] it was 97.7%.
On to `CC1(C)CC[C@]2(C(=O)O)CC[C@]3(C)C(=CC[C@@H]4[C@@]5(C)Cc6nc(-c7ccccc7)c(-c7ccccc7)nc6C(C)(C)[C@@H]5CC[C@]43C)[C@@H]2C1`, for which the Activity in assay [2] stood at 28.1%; in assay [3], 76.2%; in assay [4] it was 94.5%.
The like results for `CC(C)C[C@H](NC(=O)[C@]12CCC(C)(C)C[C@H]1C1=CC[C@@H]3[C@@]4(C)Cc5c([nH]c6ccc(Cl)cc56)C(C)(C)[C@@H]4CC[C@@]3(C)[C@]1(C)CC2)C(=O)O` were, in that order, 0%, 71.6% and 0%.
On to `CC[C@H](C)[C@H](NC(=O)[C@]12CCC(C)(C)C[C@H]1C1=CC[C@@H]3[C@@]4(C)Cc5c([nH]c6ccc(Cl)cc56)C(C)(C)[C@@H]4CC[C@@]3(C)[C@]1(C)CC2)C(=O)O`, for which the Activity in assay [2] amounted to 0%; in assay [3], 86.9%; in assay [4], 0%.
As to `COC(=O)[C@H](Cc1ccccc1)NC(=O)[C@]12CCC(C)(C)C[C@H]1C1=CC[C@@H]3[C@@]4(C)Cc5nccnc5C(C)(C)[C@@H]4CC[C@@]3(C)[C@]1(C)CC2`, the Activity in assay [2] is 29.6%; in assay [5] it was 95.6%; in assay [3], 82.8%; in assay [4], 89.5%.
Regarding `CC(C)C[C@H](NC(=O)[C@]12CCC(C)(C)C[C@H]1C1=CC[C@@H]3[C@@]4(C)Cc5c([nH]c6ccccc56)C(C)(C)[C@@H]4CC[C@@]3(C)[C@]1(C)CC2)C(=O)O`, the Activity in assay [2] is recorded as 0%; in assay [3] it was 98.2%; in assay [4] it was 80.5%.
For `CC[C@H](C)[C@H](NC(=O)[C@]12CCC(C)(C)C[C@H]1C1=CC[C@@H]3[C@@]4(C)Cc5nccnc5C(C)(C)[C@@H]4CC[C@@]3(C)[C@]1(C)CC2)C(=O)OC`, the Activity was found to be 101% in assay [1], 0.7% in assay [2], 96.2% in assay [5] and 0.7% in assay [3].
As for `COC(=O)[C@@H](NC(=O)[C@]12CCC(C)(C)C[C@H]1C1=CC[C@@H]3[C@@]4(C)Cc5nc6ccccc6nc5C(C)(C)[C@@H]4CC[C@@]3(C)[C@]1(C)CC2)C(C)C`, the Activity in assay [1] was 93%; in assay [2] it was 36.3%; in assay [3], 37.1%; in assay [4], 94.6%.
The like results for `COC(=O)[C@H](Cc1ccccc1)NC(=O)[C@]12CCC(C)(C)C[C@H]1C1=CC[C@@H]3[C@@]4(C)Cc5nc6ccccc6nc5C(C)(C)[C@@H]4CC[C@@]3(C)[C@]1(C)CC2` were, in that order, 93%, 34.2%, 53.6% and 93.5%.
For `COC(=O)CNC(=O)[C@]12CCC(C)(C)C[C@H]1C1=CC[C@@H]3[C@@]4(C)Cc5c([nH]c6ccccc56)C(C)(C)[C@@H]4CC[C@@]3(C)[C@]1(C)CC2`, the Activity in assay [1] is listed as 86.3%; in assay [2], 0%; in assay [5], 96.1%; in assay [3], 32.3%; in assay [4] it was 82.9%.
`CC1(C)CC[C@]2(C(=O)NCC(=O)O)CC[C@]3(C)C(=CC[C@@H]4[C@@]5(C)Cc6c([nH]c7ccc(Cl)cc67)C(C)(C)[C@@H]5CC[C@]43C)[C@@H]2C1`: the Activity in assay [2] was found to be 0%; in assay [3], 74.2%; in assay [4], 0%.
With `COC(=O)[C@H](Cc1ccccc1)NC(=O)[C@]12CCC(C)(C)C[C@H]1C1=CC[C@@H]3[C@@]4(C)Cc5c([nH]c6ccc(Cl)cc56)C(C)(C)[C@@H]4CC[C@@]3(C)[C@]1(C)CC2`, the Activity in assay [2] is listed as 77.4%; in assay [5], 95.2%; in assay [4], 70.7%.
On to `CC(C)[C@H](NC(=O)[C@]12CCC(C)(C)C[C@H]1C1=CC[C@@H]3[C@@]4(C)Cc5c([nH]c6ccc(Cl)cc56)C(C)(C)[C@@H]4CC[C@@]3(C)[C@]1(C)CC2)C(=O)O`, for which the Activity in assay [2] was 0%; in assay [3] it was 80%; in assay [4], 0%.
For `COC(=O)[C@H](CC(C)C)NC(=O)[C@]12CCC(C)(C)C[C@H]1C1=CC[C@@H]3[C@@]4(C)Cc5nccnc5C(C)(C)[C@@H]4CC[C@@]3(C)[C@]1(C)CC2`, the Activity in assay [1] is given as 96.4%; in assay [2], 2.8%; in assay [5] it was 95.7%; in assay [3], 1.7%.
Turning to `COC(=O)[C@H](CC(C)C)NC(=O)[C@]12CCC(C)(C)C[C@H]1C1=CC[C@@H]3[C@@]4(C)Cc5nc6ccccc6nc5C(C)(C)[C@@H]4CC[C@@]3(C)[C@]1(C)CC2`, the Activity is listed as 91.2% in assay [1], 14% in assay [2], 55.1% in assay [3] and 97.3% in assay [4].
As for `CC[C@H](C)[C@H](NC(=O)[C@]12CCC(C)(C)C[C@H]1C1=CC[C@@H]3[C@@]4(C)Cc5nc6ccccc6nc5C(C)(C)[C@@H]4CC[C@@]3(C)[C@]1(C)CC2)C(=O)O`, the Activity stood at 95% in assay [1], 30.6% in assay [2], 58.7% in assay [3] and 94.7% in assay [4].
Take `COC(=O)[C@H](C)NC(=O)[C@]12CCC(C)(C)C[C@H]1C1=CC[C@@H]3[C@@]4(C)Cc5c([nH]c6ccccc56)C(C)(C)[C@@H]4CC[C@@]3(C)[C@]1(C)CC2`: the Activity is recorded as 0% in assay [2], 99.4% in assay [3] and 81.5% in assay [4].
In the case of `CC(C)C[C@H](NC(=O)[C@]12CCC(C)(C)C[C@H]1C1=CC[C@@H]3[C@@]4(C)Cc5nc6ccccc6nc5C(C)(C)[C@@H]4CC[C@@]3(C)[C@]1(C)CC2)C(=O)O`, the Activity in assay [1] is 86.3%; in assay [2] it was 45.9%; in assay [3], 58.3%; in assay [4], 92.3%.
With `CC(C)C[C@H](NC(=O)[C@]12CCC(C)(C)C[C@H]1C1=CC[C@@H]3[C@@]4(C)Cc5nccnc5C(C)(C)[C@@H]4CC[C@@]3(C)[C@]1(C)CC2)C(=O)O`, the Activity in assay [1] is recorded as 100.2%; in assay [2], 44.8%; in assay [5], 93.9%; in assay [3], 21.2%.
Regarding `COC(=O)[C@H](Cc1ccccc1)NC(=O)[C@]12CCC(C)(C)C[C@H]1C1=CC[C@@H]3[C@@]4(C)Cc5c([nH]c6ccccc56)C(C)(C)[C@@H]4CC[C@@]3(C)[C@]1(C)CC2`, the Activity in assay [2] is reported as 0%; in assay [3], 69.2%; in assay [4], 79.8%.
As for `COC(=O)[C@H](C)NC(=O)[C@]12CCC(C)(C)C[C@H]1C1=CC[C@@H]3[C@@]4(C)Cc5nccnc5C(C)(C)[C@@H]4CC[C@@]3(C)[C@]1(C)CC2`, the Activity in assay [1] was 93.7%; in assay [2], 3.4%; in assay [5], 96.1%; in assay [3] it was 3.8%.
For the compound `COC(=O)CNC(=O)[C@]12CCC(C)(C)C[C@H]1C1=CC[C@@H]3[C@@]4(C)Cc5nc6ccccc6nc5C(C)(C)[C@@H]4CC[C@@]3(C)[C@]1(C)CC2`, the Activity in assay [1] was found to be 34.1%; in assay [2], 20.7%; in assay [3], 31.9%; in assay [4] it was 94.3%.
As to `C[C@H](NC(=O)[C@]12CCC(C)(C)C[C@H]1C1=CC[C@@H]3[C@@]4(C)Cc5c([nH]c6ccc(Cl)cc56)C(C)(C)[C@@H]4CC[C@@]3(C)[C@]1(C)CC2)C(=O)O`, the Activity in assay [1] stood at 98.3%; in assay [2] it was 0%; in assay [5], 93.4%; in assay [3] it was 1.4%; in assay [4], 0%.
Take `CC1(C)CC[C@]2(C(=O)N[C@@H](Cc3ccccc3)C(=O)O)CC[C@]3(C)C(=CC[C@@H]4[C@@]5(C)Cc6c([nH]c7ccc(Cl)cc67)C(C)(C)[C@@H]5CC[C@]43C)[C@@H]2C1`: the Activity in assay [2] was 0%; in assay [3], 77.8%; in assay [4], 0%.
With `CC1(C)CC[C@]2(C(=O)O)CC[C@]3(C)C(=CC[C@@H]4[C@@]5(C)Cc6nccnc6C(C)(C)[C@@H]5CC[C@]43C)[C@@H]2C1`, the Activity in assay [1] is reported as 97.6%; in assay [2], 1.8%; in assay [3], 16.4%; in assay [4], 93.2%.
In the case of `NCCCC(O)(P(=O)([O-])O)P(=O)(O)O.[Na+]` [ALENDRONATE SODIUM], the Activity in assay [1] came to 47.5%; in assay [2] it was 0%; in assay [3], 3.5%.
As for `CC1(C)CC[C@]2(C(=O)O)CC[C@]3(C)C(=CC[C@@H]4[C@@]5(C)CC[C@H](O)C(C)(C)[C@@H]5CC[C@]43C)[C@@H]2C1` [OLEANOLIC_ACID], the Activity came to 97.5% in assay [1], 19.4% in assay [2], 89.5% in assay [3] and 98% in assay [4].

Values taken from ChEMBL document CHEMBL1152890, “Synthesis and evaluation of a novel series of heterocyclic oleanolic acid derivatives with anti-osteoclast formation activity” (Eur J Med Chem, 2009).
